Test results as given in US20160130278A1 (TAISHO PHARMACEUTICAL CO., LTD, priority 2013, published 2016).

What follows are compounds tested against T1, human type 1 glycine transporter (GlyT1) (Homo sapiens, UniProt P48067) (assay: Glycine uptake inhibition experiment ([3H]glycine uptake)). Settings: GlyT1.
T1 construct: T98G cells (glioma cells) expressing human type 1 glycine transporter (GlyT1) were used
T1 sequence (P48067 1-706): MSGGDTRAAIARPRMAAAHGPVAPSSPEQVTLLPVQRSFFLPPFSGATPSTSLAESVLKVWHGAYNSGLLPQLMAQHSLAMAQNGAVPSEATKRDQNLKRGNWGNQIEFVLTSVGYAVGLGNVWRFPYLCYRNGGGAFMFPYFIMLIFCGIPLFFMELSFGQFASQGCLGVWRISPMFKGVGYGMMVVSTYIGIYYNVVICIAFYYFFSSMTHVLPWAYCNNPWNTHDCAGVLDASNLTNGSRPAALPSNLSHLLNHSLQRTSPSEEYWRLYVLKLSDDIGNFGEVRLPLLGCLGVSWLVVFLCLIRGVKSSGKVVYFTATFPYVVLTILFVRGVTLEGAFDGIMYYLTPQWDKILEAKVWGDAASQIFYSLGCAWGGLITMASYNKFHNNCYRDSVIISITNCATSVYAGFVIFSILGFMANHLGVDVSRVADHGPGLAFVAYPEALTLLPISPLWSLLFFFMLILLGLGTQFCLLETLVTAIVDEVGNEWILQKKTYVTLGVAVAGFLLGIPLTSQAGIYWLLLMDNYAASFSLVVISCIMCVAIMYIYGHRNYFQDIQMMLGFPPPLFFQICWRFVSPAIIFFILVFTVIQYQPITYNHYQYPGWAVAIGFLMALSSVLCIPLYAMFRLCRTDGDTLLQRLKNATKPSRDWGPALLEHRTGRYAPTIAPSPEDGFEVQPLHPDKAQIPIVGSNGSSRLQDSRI
Assay type: cell-based
Experimental: Glycine Uptake Inhibition Experiment
A glycine uptake experiment was conducted in accordance with the method published in Neuron, 8, 927-935, 1992. In the experiment, T98G cells (glioma cells) expressing human type 1 glycine transporter (GlyT1) were used. The T98G cells were seeded in a 96-well plate at 2.0×10^4 cells/well and cultured overnight in a CO2 incubator. The test substance was dissolved in a 100% DMSO solution and then dissolved in a 10 mM HEPES buffer solution (pH 7.4) containing 150 mM sodium chloride, 1 mM calcium chloride, 5 mM potassium chloride, 1 mM magnesium chloride, 10 mM glucose and 0.2% bovine serum albumin. After removing the cell culture medium, the test substance was subjected to a 10-min pretreatment. Subsequently, the test substance and [^3H] glycine (final concentration: 250 nM) were added to the cells and reaction was performed at room temperature for 15 minutes. After the end of the reaction, the extracellular fluid was aspirated with a manifold to remove excess labeled glycine present outside the cells, and then the cells were lysed with a 0.5 M aqueous sodium hydroxide solution. The glycine content in the cells was determined by measuring the radioactivity in the cell lysate with a liquid scintillation counter. Glycine uptake in the presence of 10 μM ALX5407 was defined as non-specific uptake, and the value calculated by subtracting the amount of the non-specific uptake from the total uptake in the absence of 10 μM ALX5407 was defined as specific uptake. In addition, glycine uptake inhibitory activity (IC50 value) was calculated from an inhibition curve at the concentrations of each test substance ranging from 10^−9 to 10^−5 M. It should be noted that ALX5407 is an HCl salt of N-[(3R)-3-([1,1′-biphenyl]-4-yloxy)-3-(4-fluorophenyl)propyl]-N-methylglycine.

First: O=C(N[C@H](c1cccc(Br)c1)[C@]1(O)CC[C@H](F)CC1)c1nccc(C(F)(F)F)c1Cl [Compound 101, N-[(R)-(3-bromophenyl)(trans-4-fluoro-1-hydroxycyclohexyl)methyl]-3-hcloro-4-(trifluoromethyl)pyridine-2-carboxamide]
Second: O=C(NC(c1cccc(-c2cccnc2)c1)C1(O)CCCC1)c1nccc(C(F)(F)F)c1Cl (stereo not shown) [Compound 20, 3-chloro-N-{(1-hydroxycyclopentyl)[3-(pyridin-3-yl)phenyl]methyl}-4-(trifluoromethyl)pyridine-2-carboxamide]
The IC50 of the first is 88-fold higher: 1500 nM for the first, 17 nM for the second. The second is the more potent here.

Compared with `CCn1cc(-c2cccc(C(NC(=O)c3cc(Cl)ccc3C(F)(F)F)C3(O)CCC(F)(F)CC3)c2)cn1` (single isomer, unassigned) [Compound 218, 5-chloro-N-[(4,4-difluoro-1-hydroxycyclohexyl)[3-(1-ethyl-1H-pyrazol-4-yl)phenyl]methyl}-2-(trifluoromethyl)benzamide], `O=C(N[C@@H](c1cccc(Br)c1)C1(O)CCCC1)c1cccc(C(F)(F)F)c1Cl` [Compound 64, N-[(S)-(3-bromophenyl)(1-hydroxycyclopentyl)methyl]-2-chloro-3-(trifluoromethyl)benzamide] is 79-fold lower in IC50: 5900 nM for the first, 75 nM for the second.

Going from `CCn1cc(-c2cccc(C(NC(=O)c3ncccc3Cl)C3(O)CCCC3)c2)cn1` (stereo not shown) [Compound 21, 3-chloro-N-{[3-(1-ethyl-1H-pyrazol-4-yl)phenyl](1-hydroxycyclopentyl)methyl}pyridine-2-carboxamide] to `O=C(NC(c1cc(Cl)ccc1Cl)C1(O)CCC(F)(F)CC1)c1nccc(C(F)(F)F)c1Cl` (single isomer, unassigned) [Compound 234, 3-chloro-N-[(2,5-dichlorophenyl)(4,4-difluoro-1-hydroxycyclohexyl)methyl]-4-(trifluoromethyl)pyridine-2-carboxamide], the IC50 falls from 4600 nM to 280 nM (16-fold).

First: CCn1cc(-c2cccc(C(NC(=O)c3ccnc(C(F)(F)F)c3Cl)C3(O)CCC(F)(F)CC3)c2)cn1 (stereo not shown) [Compound 157, 3-chloro-N-[(4,4-difluoro-1-hydroxycyclohexyl)[3-(1-ethyl-1H-pyrazol-4-yl)phenyl]methyl]-2-(trifluoromethyl)pyridine-4-carboxamide]
Second: O=C(NC(c1ccccc1F)C1(O)CCC(F)(F)CC1)c1nccc(C(F)(F)F)c1Cl (single isomer, unassigned) [Compound 237]
The IC50 of the first is 1.6-fold lower: 160 nM for the first, 250 nM for the second. The first is the more potent here.

`CCn1cc(-c2cccc(C(NC(=O)c3ccnc(C(F)(F)F)c3)C3(O)CCC(F)(F)CC3)c2)cn1` (stereo not shown) [Compound 172, N-{(4,4-difluoro-1-hydroxycyclohexyl)[3-(1-ethyl-1H-pyrazol-4-yl)phenyl]methyl}-2-(trifluoromethyl)pyridine-4-carboxamide] and “3,4-dichloro-N-[(2-chloro-3-fluorophenyl)(cis-4-fluoro-1-hydroxycyclohexyl)methyl]benzamide [Compound 252]” are within 1.5-fold of each other in IC50: 5000 nM for the first, 4700 nM for the second.

Going from `CCn1cc(-c2cccc(C(NC(=O)c3ccccc3Cl)C3(O)CCC(F)(F)CC3)c2)cn1` (stereo not shown) [Compound 205, 2-chloro-N-[(4,4-difluoro-1-hydroxycyclohexyl)[3-(1-ethyl-1H-pyrazol-4-yl)phenyl]methyl}benzamide] to `CCn1cc(-c2cccc(C(NC(=O)c3ccc(F)cc3C(F)(F)F)C3(O)CCC(F)(F)CC3)c2)cn1` (stereo not shown) [Compound 192, N-{(4,4-difluoro-1-hydroxycyclohexyl)[3-(1-ethyl-1H-pyraozl-4-yl)phenyl]methyl}-4-fluoro-2-(trifluoromethyl)benzamide], the IC50 falls from 1900 nM to 340 nM (5.6-fold). The second is the more potent here.

Going from `O=C(NC(c1cccc(F)c1Cl)[C@]1(O)CC[C@@H](F)CC1)c1ccccc1OC(F)(F)F` (single isomer, unassigned) [Compound 282, N-[(2-chloro-3-flurophenyl)(cis-4-fluoro-1-hydroxycyclohexyl)methyl]-2-(trifluoromethoxy)benzamide] to `O=C(NC(c1cccc(F)c1Cl)[C@]1(O)CC[C@@H](F)CC1)c1ccc(C(F)(F)F)nc1Cl` (single isomer, unassigned) [Compound 304, 2-chloro-N-[[2-chloro-3-fluorophenyl)(cis-4-fluoro-1-hydroxycyclohexyl)methyl]-6-(trifluoromethyl)pyridine-3-carboxamide], the IC50 falls from 3400 nM to 290 nM (12-fold).

First: O=C(NC(c1cccc(F)c1Cl)[C@]1(O)CC[C@@H](F)CC1)c1nc(C(F)(F)F)ccc1Cl (single isomer, unassigned) [Compound 290, 3-chloro-N-[(2-chloro-3-fluorophenyl)(cis-4-fluoro-1-hydroxycyclohexyl)methyl]-6-(trifluoromethyl)pyridine-2-carboxamide]
Second: O=C(NC(c1cccnc1Cl)[C@]1(O)CC[C@@H](F)CC1)c1cc(C(F)(F)F)ccc1Cl (single isomer, unassigned) [Compound 325, 2-chloro-N-[(2-chloropyridin-3-yl)(cis-4-fluoro-1-hydroxycyclohexyl)methyl]-5-(trifluoromethyl)benzamide]
The IC50 of the first is 2.1-fold higher: 900 nM for the first, 430 nM for the second. The second is the more potent here.

Compared with `O=C(NC(c1cccc(-c2ccccn2)c1)C1(O)CCC(F)(F)CC1)c1ccnc(C(F)(F)F)c1Cl` (single isomer, unassigned) [Compound 189, 3-chloro-N-{(4,4-difluoro-1-hydroxycyclohexyl)[3-(pyridin-2-yl)phenyl]methyl}-2-(trifluoromethyl)pyridine-4-carboxamide], `O=C(NC(c1cccc(F)c1Cl)[C@]1(O)CC[C@@H](F)CC1)c1ncccc1Cl` (single isomer, unassigned) [Compound 249, 3-chloro-N-[(2-chloro-3-fluorophenyl)(cis-4-fluoro-1-hydroxycyclohexyl)methyl]pyridine-2-carboxamide] is 6-fold higher in IC50: 200 nM for the first, 1200 nM for the second.

Compared with `O=C(NC(c1cccc(Cl)c1)C1(O)CCCCC1)c1nccc(C(F)(F)F)c1Cl` (stereo not shown) [Compound 212, 3-chloro-N-[(3-chlorophenyl)(1-hydroxycyclohexyl)methyl]-4-(trifluoromethyl)pyridine-2-carboxamide], `O=C(NC(c1cccc(Cl)c1Cl)C1(O)CCCC1)c1nccc(C(F)(F)F)c1Cl` (single isomer, unassigned) [Compound 116, 3-chloro-N-[(2,3-dichlorophenyl)(1-hydroxycyclopentyl)methyl]-4-(trifluoromethyl)pyridine-2-carboxamide] is 71-fold higher in IC50: 84 nM for the first, 6000 nM for the second. The first is the more potent here.

Compared with `O=C(NC(c1cccc(-n2ccnn2)c1)C1(O)CCCC1)c1nccc(C(F)(F)F)c1Cl` (stereo not shown) [Compound 78, 3-chloro-N-{(1-hydroxycyclopentyl)[3-(1H-1,2,3-triazol-1-yl)phenyl]methyl}-4-(trifluoromethyl)pyridine-2-carboxamide], `O=C(NC(c1ccccc1)[C@]1(O)CC[C@@H](F)CC1)c1nccc(C(F)(F)F)c1Cl` (single isomer, unassigned) [Compound 238, 3-chloro-N-[(cis-4-fluoro-1-hydroxycyclohexyl)(phenyl)methyl]-4-(trifluoromethyl)pyridine-2-carboxamide] is 2-fold lower in IC50: 450 nM for the first, 220 nM for the second. The second is the more potent here.

`CCn1cc(-c2cccc(C(NC(=O)c3cc(Cl)ccc3C(F)(F)F)C3(O)CCC(F)(F)CC3)c2)cn1` (stereo not shown) [Compound 203, 5-chloro-N-{(4,4-difluoro-1-hydroxycyclohexyl)[3-(1-ethyl-1H-pyrazol-4-yl)phenyl]methyl}-2-(trifluoromethyl)benzamide] and `CCn1cc(-c2cccc(C(NC(=O)c3c(Cl)ccc(Cl)c3OC)C3(O)CCC(F)(F)CC3)c2)cn1` (stereo not shown) [Compound 182, 3,6-dichloro-N-[(4,4-difluoro-1-hydroxycyclohexyl)[3-(1-ethyl-1H-pyrazol-4-yl)phenyl]methyl}-2-methoxybenzamide] are within 1.5-fold of each other in IC50: 730 nM for the first, 580 nM for the second.

With `O=C(NC(c1cccc(F)c1Cl)[C@]1(O)CC[C@@H](F)CC1)c1cccc(F)c1Cl` (single isomer, unassigned) [Compound 288, 2-chloro-N-[(2-chloro-3-fluorophenyl)(cis-4-fluoro-1-hydroxycyclohexyl)methyl]-3-fluorobenzamide] the IC50 was 1000 nM.
